Consider 53 molecules from the Kinase Knowledgebase extract (Sharma et al. 2016).

Where “and” joins values, the source holds several entries; their conditions need not be identical. Equal values may be shown once. Bounds are passed on as bounds.

The experiment deals with MAPK14 (UniProt Q16539). Nature of the experiment: Inhibition of MAPK14 Kinase Activity.
Chain of MAPK14 (Q16539 whole entry, looked up): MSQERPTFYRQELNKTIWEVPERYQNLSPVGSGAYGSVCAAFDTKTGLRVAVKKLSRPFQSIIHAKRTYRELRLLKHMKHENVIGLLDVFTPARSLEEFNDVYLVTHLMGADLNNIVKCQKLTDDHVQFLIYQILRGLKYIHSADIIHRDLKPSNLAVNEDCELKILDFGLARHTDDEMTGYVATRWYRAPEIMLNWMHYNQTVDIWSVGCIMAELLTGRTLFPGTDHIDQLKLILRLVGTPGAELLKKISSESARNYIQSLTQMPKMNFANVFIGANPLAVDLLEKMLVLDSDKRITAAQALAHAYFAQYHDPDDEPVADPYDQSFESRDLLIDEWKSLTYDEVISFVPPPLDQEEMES
With `Cn1nc(C(C)(C)C)cc1NC(=O)Nc1cc(F)cc(OC2CCN(C(=O)c3c(Cl)cncc3Cl)CC2)c1`, the IC50 was below 5 µM.
`Cn1nc(C(C)(C)C)cc1NC(=O)Nc1ccc(CN2CCN(C(=O)c3ccc(F)cc3)CC2)cc1`: the IC50 is below 5 µM.
`Cn1nc(C(C)(C)C)cc1NC(=O)Nc1ccc(CN2CCN(C(=O)c3ccc(C(F)(F)F)cc3)CC2)cc1` came in with an IC50 below 5 µM.
Molecule `Cn1nc(C(C)(C)C)cc1NC(=O)Nc1cc(F)cc(OC2CCN(C(=O)c3sccc3Cl)CC2)c1` came in with an IC50 below 5 µM.
In the case of `Cn1nc(C(C)(C)C)cc1NC(=O)Nc1cccc(OC2CCN(C(=O)c3ccc(F)cc3F)CC2)c1` it was below 5 µM; in that of `Cc1ccc(-n2nc(C(C)(C)C)cc2NC(=O)Nc2cc(F)cc(OC3CCN(C(=O)C4CC4)CC3)c2)cc1`, below 5 µM; in that of `Cn1nc(C(C)(C)C)cc1NC(=O)Nc1ccc(OC2CCN(C(=O)Oc3ccccc3C(F)(F)F)CC2)cc1`, below 5 µM.
For `Cc1ccc(-n2nc(C(C)(C)C)cc2NC(=O)Nc2ccc(OCCC3CCN(C(=O)c4c(Cl)cccc4Cl)CC3)c3ccccc23)cc1` the value was below 5 µM; for `Cn1nc(C(C)(C)C)cc1NC(=O)Nc1ccc(OC2CCN(C(=O)c3c(Cl)cncc3Cl)CC2)cc1`, below 5 µM; for `Cn1nc(C(C)(C)C)cc1NC(=O)Nc1ccc(OC2CCN(C(=O)C(C)(C)C)CC2)cc1`, below 5 µM.
In the case of `CC(=O)N1CCN(Cc2ccc(NC(=O)Nc3cc(C(C)(C)C)nn3-c3ccc(C)cc3)cc2)CC1` it was below 5 µM; in that of `Cn1nc(C(C)(C)C)cc1NC(=O)Nc1cc(F)cc(OC2CCN(C(=O)c3cc[nH]c3)CC2)c1`, below 5 µM.
`Cc1nn(C)c(C)c1C(=O)N1CCC(Oc2ccc(NC(=O)Nc3cn(C)nc3C(C)(C)C)cc2)CC1` yielded an IC50 below 5 µM.
For `CCCC(C)(C)C(=O)N1CCN(c2ccc(NC(=O)Nc3cc(C(C)(C)C)nn3-c3ccc(C)cc3)cc2)CC1` the value was below 5 µM; for `Cn1nc(C(C)(C)C)cc1NC(=O)Nc1cccc(OC2CCN(C(=O)OCc3ccccc3)CC2)c1`, below 5 µM.
`Cc1ccc(-n2nc(C(C)(C)C)cc2NC(=O)Nc2cc(F)cc(OC3CCN(C(=O)c4ccccc4F)CC3)c2)cc1`: the IC50 is below 5 µM.
`COc1ccc(C(=O)N2CCC(Oc3cccc(NC(=O)Nc4cc(C(C)(C)C)nn4C)c3)CC2)c(OC)n1`: the concentration for half-maximal inhibition (IC50) was below 5 µM.
In the case of `Cn1nc(C(C)(C)C)cc1NC(=O)Nc1ccc(CN2CCN(C(=O)c3cccnc3)CC2)cc1` it was below 5 µM; in that of `Cn1nc(C(C)(C)C)cc1NC(=O)Nc1cccc(OC2CCN(C(=O)c3cc[nH]c3)CC2)c1`, below 5 µM.
For `Cn1nc(C(C)(C)C)cc1NC(=O)Nc1ccc(OC2CCN(C(=O)c3ccccc3F)CC2)cc1` the value was below 5 µM; for `Cn1nc(C(C)(C)C)cc1NC(=O)Nc1ccc(OC2CCN(C(=O)c3c(Cl)cccc3Cl)CC2)cc1`, below 5 µM; for `Cc1ccc(-n2nc(C(C)(C)C)cc2NC(=O)Nc2ccc(CN3CCN(C(=O)c4c(Cl)cccc4Cl)CC3)cc2)cc1`, below 5 µM.
On to `Cn1nc(C(C)(C)C)cc1NC(=O)Nc1ccc(CN2CCN(C(=O)c3ccccc3)CC2)cc1`, for which the IC50 is below 5 µM.
In the case of `Cc1ccc(-n2nc(C(C)(C)C)cc2NC(=O)Nc2ccc(N3CCN(S(=O)(=O)C(C)C)CC3)cc2)cc1` it was below 5 µM; in that of `COc1cccc(F)c1C(=O)N1CCC(Oc2cccc(NC(=O)Nc3cc(C(C)(C)C)nn3C)c2)CC1`, below 5 µM; in that of `Cn1nc(C(C)(C)C)cc1NC(=O)Nc1cc(F)cc(OC2CCN(C(=O)c3cccc4cc[nH]c34)CC2)c1`, below 5 µM.
For `Cn1nc(C(C)(C)C)cc1NC(=O)Nc1cc(F)cc(OC2CCN(C(=O)c3ccccc3Cl)CC2)c1`, the IC50 is below 5 µM.
For `COc1ccc(C(=O)N2CCC(Oc3ccc(NC(=O)Nc4cc(C(C)(C)C)nn4C)cc3)CC2)c(OC)n1` the value was below 5 µM; for `Cn1nc(C(C)(C)C)cc1NC(=O)Nc1cc(F)cc(OC2CCN(C(=O)c3cccc4[nH]ccc34)CC2)c1`, below 5 µM; for `Cn1nc(C(C)(C)C)cc1NC(=O)Nc1ccc(OC2CCN(C(=O)c3ccccc3C(F)(F)F)CC2)cc1`, below 5 µM.
For `Cn1nc(C(C)(C)C)cc1NC(=O)Nc1ccc(CN2CCN(C(=O)c3c(F)cccc3F)CC2)cc1` the value was 0.01 µM and < 5 µM; for `Cn1nc(C(C)(C)C)cc1NC(=O)Nc1ccc(OC2CCN(C(=O)c3c(F)cccc3Cl)CC2)cc1`, below 5 µM; for `Cn1nc(C(C)(C)C)cc1NC(=O)Nc1cc(F)cc(OC2CCN(C(=O)c3ccccc3OC(F)(F)F)CC2)c1`, below 5 µM.
For `Cn1nc(C(C)(C)C)cc1NC(=O)Nc1cccc(OC2CCN(C(=O)c3c(F)cccc3F)CC2)c1` the value was below 5 µM; for `Cn1nc(C(C)(C)C)cc1NC(=O)Nc1ccc(OC2CCN(C(=O)C3(c4ccccc4)CC3)CC2)cc1`, below 5 µM.
Consider `CN(C)CCOc1ccc(C(=O)N2CCC(Oc3cc(F)cc(NC(=O)Nc4cc(C(C)(C)C)nn4C)c3)CC2)cc1`, for which the IC50 is below 5 µM.
For the molecule `CCn1nc(C(C)(C)C)cc1NC(=O)Nc1ccc(CN2CCN(C(=O)c3c(F)cccc3F)CC2)cc1F`, the half-maximal inhibitory concentration (IC50) was below 5 µM.
For `Cc1ccc(-n2nc(C(C)(C)C)cc2NC(=O)Nc2ccc(CN3CCN(C(=O)c4c(F)cccc4F)CC3)cc2)cc1` the value was below 5 µM.
For `Cn1nc(C(C)(C)C)cc1NC(=O)Nc1ccc(CN2CCN(C(=O)c3ccc(Cl)cc3Cl)CC2)cc1` the value was below 5 µM; for `Cn1nc(C(C)(C)C)cc1NC(=O)Nc1ccc(CN2CCN(C(=O)c3cc(Cl)sc3Cl)CC2)cc1`, below 5 µM.
`CN1CCN(Cc2ccc(C(=O)N3CCC(Oc4cc(F)cc(NC(=O)Nc5cc(C(C)(C)C)nn5C)c4)CC3)cc2)CC1` showed an IC50 below 5 µM.
Turning to `Cc1ccc(-n2nc(C(C)(C)C)cc2NC(=O)Nc2ccc(N3CCN(S(=O)(=O)C4CC4)CC3)cc2)cc1`, the 50% inhibitory concentration (IC50) was below 5 µM.
The molecule `Cn1nc(C(C)(C)C)cc1NC(=O)Nc1cc(F)cc(OC2CCN(C(=O)C(Cl)(Cl)Cl)CC2)c1` had an IC50 below 5 µM.
`Cn1nc(C(C)(C)C)cc1NC(=O)Nc1cc(F)cc(OC2CCN(C(=O)c3ccccc3C(F)(F)F)CC2)c1` registered an IC50 below 5 µM.
For `Cc1ccc(-n2nc(C(C)(C)C)cc2NC(=O)Nc2ccc(OCC3CCN(C(=O)c4c(Cl)cccc4Cl)CC3)c3ccccc23)cc1` the value was below 5 µM.
For `Cn1nc(C(C)(C)C)cc1NC(=O)Nc1ccc(CN2CCN(C(=O)c3c(F)cccc3F)CC2)cc1F` the value was below 5 µM.
For `Cn1nc(C(C)(C)C)cc1NC(=O)Nc1cccc(OC2CCN(C(=O)c3c(Cl)cncc3Cl)CC2)c1`, the half-maximal inhibitory concentration (IC50) was below 5 µM.
In the case of `Cn1nc(C(C)(C)C)cc1NC(=O)Nc1ccc(CN2CCN(C(=O)c3c(F)cccc3F)CC2)c(F)c1`, the concentration for half-maximal inhibition (IC50) is below 5 µM.
Take `Cc1ccc(-n2nc(C(C)(C)C)cc2NC(=O)Nc2ccc(N3CCN(C(=O)C4CCC4)CC3)cc2)cc1`: the concentration for half-maximal inhibition (IC50) is below 5 µM.
In the case of `Cc1ccc(-n2nc(C(C)(C)C)cc2NC(=O)Nc2ccc(N3CCN(C(=O)C4(C)CC4)CC3)cc2)cc1`, the IC50 was below 5 µM.
In the case of `Cn1nc(C(C)(C)C)cc1NC(=O)Nc1ccc(OC2CCN(S(C)(=O)=O)CC2)cc1` it was below 5 µM; in that of `Cc1ccc(-n2nc(C(C)(C)C)cc2NC(=O)Nc2ccc(N3CCN(C(=O)c4c(F)cccc4F)CC3)cc2)cc1`, below 5 µM.
For `Cn1nc(C(C)(C)C)cc1NC(=O)Nc1ccc(OC2CCN(C(=O)c3ccccc3Cl)CC2)cc1`, the concentration for half-maximal inhibition (IC50) was below 5 µM.
